For seven molecules, EC50 results are on record in patent publication US20110038885A1, “CHEMOKINE ANALOGS” (priority 2007, published 2011).

Bridge positions count the residues as written; N and C are the ends. Square brackets hold non-standard residues; d marks the D form. Peptide text beside a SMILES is read from it. * marks the point of attachment. Isobutyryl = CC(C)C(=O)*; Orn = NCCC[C@H](N)C(=O)O; Butyryl = CCCC(=O)*; βAla = NCCC(=O)O

A word on the EC50: it is the midpoint of the concentration-response curve. A higher EC50 goes with a less potent agent.

In the assay the test system is MCP-1. Kind of assay: In vitro chemotaxis (trans-well migration) v MCP-1. It is filed as cell-based, human. In short, it runs like this:
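Human THP-1 monocytes (10^4-10^6) with agent at varying concentrations in upper trans-well chamber; IL-8 or MCP-1 in lower chamber at a migration-inducing concentration, 37° C for e.g. 4 hours. Migrated cells quantified by MTT (595 nm) against a THP-1 standard curve; cytotoxicity and non-chemokine chemoattractant controls run.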
`CC[C@@H](C)[C@H]1NC(=O)[C@@H](CCC(N)=O)NC(=O)[C@H](NC(C)=O)CSSC[C@H](C(N)=O)NC(=O)[C@@H](CC(C)C)NC(=O)[C@@H](CC(=O)O)NC(=O)[C@H]2CCCN2C(=O)[C@@H](CCCCN)NC(=O)[C@@H](CCC(N)=O)NC(=O)[C@@H](CCCCN)NC(=O)[C@@H](Cc2c[nH]c3ccccc23)NC1=O` [Example 198, Ac-c(D-Cys-D-Gln-D-Ile-D-Trp-D-Lys-D-Gln-D-Lys-D-Pro-D-Asp-D-Leu-D-Cys)-NH2] (Ac-[dC][dQ][dI][dW][dK][dQ][dK][dP][dD][dL][dC]-NH2; disulfide 1-11): the EC50 amounted to 20 nM.

Regarding `CC[C@@H](C)[C@H]1NC(=O)[C@@H](CCC(N)=O)NC(=O)CCNC(=O)C[C@H](C(N)=O)NC(=O)[C@@H](CC(C)C)NC(=O)[C@@H](CC(=O)O)NC(=O)[C@H]2CCCN2C(=O)[C@@H](CCCCN)NC(=O)[C@@H](CCC(N)=O)NC(=O)[C@@H](CCCCN)NC(=O)[C@@H](Cc2c[nH]c3ccccc23)NC1=O` [Example 199, c(βAla-D-Gln-D-Ile-D-Trp-D-Lys-D-Gln-D-Lys-D-Pro-D-Asp-D-Leu-D-Asp)-NH2] ([βAla][dQ][dI][dW][dK][dQ][dK][dP][dD][dL][dD]-NH2; lactam N-11), the EC50 is 20 nM. Then `CCCC(=O)N[C@@H]1CSSC[C@H](C(N)=O)NC(=O)[C@@H](CCCCN)NC(=O)[C@@H](Cc2c[nH]c3ccccc23)NC(=O)[C@@H](C(C)C)NC(=O)[C@@H](CCC(N)=O)NC1=O` [Example 200, Butanyl-c(D-Cys-D-Gln-D-Val-D-Trp-D-Lys-D-Cys)-NH2] (Butyryl-[dC][dQ][dV][dW][dK][dC]-NH2; disulfide 1-6), with 30 nM. The value for `CC[C@H](C)[C@H](NC(=O)[C@H](Cc1c[nH]c2ccccc12)NC(=O)[C@H](CCCCN)NC(=O)[C@H](CC(=O)O)NC(=O)C(C)C)C(=O)N[C@@H](CCC(N)=O)C(=O)N[C@@H](CCCCN)C(N)=O` [Example 201, Isobutyryl-Asp-Lys-Trp-Ile-Gln-Lys-NH2] (Isobutyryl-DKWIQK-NH2) was 10 nM. Regarding `CC[C@H](C)[C@H](NC(=O)[C@H](Cc1c[nH]c2ccccc12)NC(=O)[C@H](CCCCN)NC(=O)[C@H](CCCN)NC(=O)C(C)C)C(=O)N[C@@H](CCC(N)=O)C(=O)N[C@@H](CC(=O)O)C(N)=O` [Example 202, Isobutyryl-Orn-Lys-Trp-Ile-Gln-Asp-NH2] (Isobutyryl-[Orn]KWIQD-NH2), the EC50 was found to be 8 nM. The EC50 values of the last two molecules are within 1.5-fold of each other.

For “[aminoPeg10-oxaglutaryl]2-c(D-Cys-D-Gln-D-Ile-D-Trp-D-Lys-D-Gln-D-Lys-D-Pro-D-Asp-D-Leu-D-Cys)-NH2 [Example 186]”, the midpoint of the response, the EC50, lay at 20 nM. As to “[aminoPeg10-oxaglutaryl]-c(D-Cys-D-Gln-D-Ile-D-Trp-D-Lys-D-Gln-D-Lys-D-Pro-D-Asp-D-Leu-D-Cys)-NH2 [Example 187]”, the EC50 came out at 66 nM. This EC50 lies about 3.3-fold higher than the previous one.
